Series [1] has as its system Liver microsome. Briefly: Drug level in human liver microsomes treated with montelukast at 0.02 to 0.4 uM preincubated for 3 mins followed by beta-NADPH addition by LC-MS analysis. The class given is ADME. Background: Microsomes from liver hold many membrane-bound enzymes, among them those of drug oxidation.
Series [2] concerns the target T1, Cytochrome P450 2B6 (Homo sapiens, UniProt P20813).
T1 sequence (P20813 whole entry): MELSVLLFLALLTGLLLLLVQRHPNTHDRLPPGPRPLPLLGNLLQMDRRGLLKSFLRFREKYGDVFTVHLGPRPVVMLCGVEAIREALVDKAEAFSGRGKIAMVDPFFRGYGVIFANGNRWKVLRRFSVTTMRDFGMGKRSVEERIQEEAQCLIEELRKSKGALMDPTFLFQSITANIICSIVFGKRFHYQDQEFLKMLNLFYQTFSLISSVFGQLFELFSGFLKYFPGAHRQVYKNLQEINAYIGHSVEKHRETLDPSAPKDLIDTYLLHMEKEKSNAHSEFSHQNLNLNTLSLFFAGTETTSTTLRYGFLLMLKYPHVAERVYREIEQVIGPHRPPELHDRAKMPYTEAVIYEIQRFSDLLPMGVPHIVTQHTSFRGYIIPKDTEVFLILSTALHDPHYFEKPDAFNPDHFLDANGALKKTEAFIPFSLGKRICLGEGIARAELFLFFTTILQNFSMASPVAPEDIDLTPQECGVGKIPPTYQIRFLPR
Briefly: Activity of recombinant human CYP2B6 expressed in microsomes isolated from baculovirus infected insect cell assessed as enzyme-mediated 2-(2-((R)-3-((1-(carboxymethyl)cyclopropyl)methylthio)-3-(3-(2-(7-chloroquinolin-2-yl)vinyl)phenyl)propyl)phenyl)-2-hydroxypropanoic acid formation at 1 uM after 30 mins by LC-MS analysis. The format is ADME. As to conditions: 0.5 h.

The target in series [3] is T2, Cytochrome P450 2C19 (Homo sapiens, UniProt P33261). The experiment in a line: Activity of recombinant human CYP2C19 expressed in microsomes isolated from baculovirus infected insect cell assessed as enzyme-mediated 2-(2-((R)-3-((1-(carboxymethyl)cyclopropyl)methylthio)-3-(3-(2-(7-chloroquinolin-2-yl)vinyl)phenyl)propyl)phenyl)-2-hydroxypropanoic acid formation at 1 uM after 30 mins by LC-MS analysis. The format is ADME. As to conditions: 0.5 h.
T2 sequence (P33261 whole entry): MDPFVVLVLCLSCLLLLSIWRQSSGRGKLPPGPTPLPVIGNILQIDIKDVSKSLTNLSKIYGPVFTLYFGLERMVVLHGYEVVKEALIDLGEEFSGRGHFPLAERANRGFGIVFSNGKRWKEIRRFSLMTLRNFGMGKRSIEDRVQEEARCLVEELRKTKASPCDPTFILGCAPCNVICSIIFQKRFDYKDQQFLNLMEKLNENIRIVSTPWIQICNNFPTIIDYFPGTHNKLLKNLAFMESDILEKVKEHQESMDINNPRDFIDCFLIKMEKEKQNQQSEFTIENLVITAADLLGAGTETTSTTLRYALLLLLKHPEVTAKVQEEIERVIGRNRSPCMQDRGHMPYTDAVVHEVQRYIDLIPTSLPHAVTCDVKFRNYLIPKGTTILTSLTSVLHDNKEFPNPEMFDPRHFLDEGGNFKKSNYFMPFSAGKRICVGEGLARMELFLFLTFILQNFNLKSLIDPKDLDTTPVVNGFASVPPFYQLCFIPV

The target of series [4] is T3, Cytochrome P450 2C9 (Homo sapiens, UniProt P11712). The experiment in a line: Activity of recombinant human CYP2C9 expressed in microsomes isolated from baculovirus infected insect cell assessed as enzyme-mediated compound formation treated with montelukast at 0.02 to 0.1 uM after 12 mins by LC-MS analysis. The format is ADME. As to conditions: 0.2 h.
T3 sequence (P11712 whole entry): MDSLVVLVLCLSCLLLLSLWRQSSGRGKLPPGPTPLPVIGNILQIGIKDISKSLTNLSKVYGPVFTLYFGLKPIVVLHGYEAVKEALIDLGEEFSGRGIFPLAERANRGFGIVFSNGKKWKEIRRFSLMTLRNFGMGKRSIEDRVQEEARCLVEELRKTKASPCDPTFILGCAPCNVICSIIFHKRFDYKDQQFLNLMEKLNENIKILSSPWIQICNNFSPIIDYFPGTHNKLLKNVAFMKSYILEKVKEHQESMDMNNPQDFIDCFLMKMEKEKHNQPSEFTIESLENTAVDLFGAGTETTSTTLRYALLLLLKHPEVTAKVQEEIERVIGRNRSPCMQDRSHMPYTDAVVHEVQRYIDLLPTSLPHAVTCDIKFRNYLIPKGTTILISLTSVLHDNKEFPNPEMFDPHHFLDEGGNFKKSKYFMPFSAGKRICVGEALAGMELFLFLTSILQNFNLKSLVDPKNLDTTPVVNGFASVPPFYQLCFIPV
For series [5], the target named is T4, Cytochrome P450 2A6 (Homo sapiens, UniProt P11509).
T4 sequence (P11509 whole entry): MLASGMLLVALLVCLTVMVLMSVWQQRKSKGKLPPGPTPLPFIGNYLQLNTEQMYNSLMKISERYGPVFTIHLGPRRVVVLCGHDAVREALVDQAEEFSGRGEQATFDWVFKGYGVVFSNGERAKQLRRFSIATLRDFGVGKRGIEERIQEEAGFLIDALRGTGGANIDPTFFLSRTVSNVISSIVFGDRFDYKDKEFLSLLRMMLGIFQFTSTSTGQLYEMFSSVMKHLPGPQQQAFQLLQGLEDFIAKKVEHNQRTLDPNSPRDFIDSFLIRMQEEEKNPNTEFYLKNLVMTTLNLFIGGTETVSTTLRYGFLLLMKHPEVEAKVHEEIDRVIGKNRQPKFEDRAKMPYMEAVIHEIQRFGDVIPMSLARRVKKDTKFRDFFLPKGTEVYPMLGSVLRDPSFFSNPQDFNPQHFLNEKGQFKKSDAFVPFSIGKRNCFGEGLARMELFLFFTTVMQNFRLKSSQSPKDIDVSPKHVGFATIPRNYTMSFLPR
Briefly: Activity of recombinant human CYP2A6 expressed in microsomes isolated from baculovirus infected insect cell assessed as enzyme-mediated 2-(2-((R)-3-((1-(carboxymethyl)cyclopropyl)methylthio)-3-(3-(2-(7-chloroquinolin-2-yl)vinyl)phenyl)propyl)phenyl)-2-hydroxypropanoic acid formation at 1 uM after 30 mins by LC-MS analysis. The class given is ADME. As to conditions: 0.5 h.

The subject of series [6] is Liver microsome. Briefly: Drug metabolism in human liver microsomes at 1 to 10 uM preincubated for 3 mins followed by beta-NADPH addition by LC-MS analysis in presence of albumin. The format is ADME.
Series [7] deals with Liver microsome. Briefly: Drug metabolism in human liver microsomes assessed as (R)-2-(1-((1-(3-(2-(7-chloroquinolin-2-yl)vinyl)phenyl)-3-(4-hydroxy-2-(2-hydroxypropan-2-yl)phenyl)propylthio)methyl)cyclopropyl)acetic acid formation at 0.1 uM after 12 mins by LC-MS analysis in presence of 2-(1-(((S)-1-(3-(2-(7-chloroquinolin-2-yl)vinyl)phenyl)-3-(2-(2-hydroxypropan-2-yl)phenyl)propylsulfinyl)methyl)cyclopropyl)acetic acid. As to conditions: 0.2 h. The class given is ADME.

Series [8] has as its system Liver microsome. The experiment in a line: Drug metabolism in human liver microsomes assessed as 2-(1-(((1R)-1-(3-(2-(7-chloroquinolin-2-yl)vinyl)phenyl)-3-(2-(1,2-dihydroxypropan-2-yl)phenyl)propylthio)methyl)cyclopropyl)acetic acid formation at 0.4 uM after 15 mins by LC-MS analysis in presence of CYP2C8 inhibitor gemfibrozil 1-O-beta glucuronide and trimethoprim, CYP2C9 inhibitor sulfaphenazole, and CYP2E1 inhibitor DDC. The class given is ADME. As to conditions: 0.25 h.

The target in series [9] is T5, Cytochrome P450 3A4 (Homo sapiens, UniProt P08684). Briefly: Activity of recombinant human CYP3A4 expressed in microsomes isolated from baculovirus infected insect cell assessed as enzyme-mediated 2-(1-(((1R)-1-(3-(2-(7-chloroquinolin-2-yl)vinyl)phenyl)-3-hydroxy-3-(2-(2-hydroxypropan-2-yl)phenyl)propylthio)methyl)cyclopropyl)acetic acid formation at 1 uM after 60 mins by LC-MS analysis. As to conditions: 1 h.
T5 sequence (P08684 whole entry): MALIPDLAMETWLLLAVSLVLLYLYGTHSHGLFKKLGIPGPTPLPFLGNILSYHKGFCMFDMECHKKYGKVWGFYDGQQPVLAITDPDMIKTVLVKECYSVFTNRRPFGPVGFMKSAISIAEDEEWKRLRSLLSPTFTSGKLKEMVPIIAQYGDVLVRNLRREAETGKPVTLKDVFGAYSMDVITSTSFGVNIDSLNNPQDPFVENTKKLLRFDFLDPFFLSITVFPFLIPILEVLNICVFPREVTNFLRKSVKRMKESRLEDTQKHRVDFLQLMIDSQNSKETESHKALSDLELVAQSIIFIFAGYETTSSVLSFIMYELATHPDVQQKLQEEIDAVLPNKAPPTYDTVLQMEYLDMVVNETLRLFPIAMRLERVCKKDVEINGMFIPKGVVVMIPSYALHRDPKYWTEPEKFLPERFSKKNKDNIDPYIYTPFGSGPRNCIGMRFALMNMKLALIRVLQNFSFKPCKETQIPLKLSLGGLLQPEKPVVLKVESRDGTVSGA

Series [10] addresses T4, Cytochrome P450 2A6. Briefly: Activity of recombinant human CYP2A6 expressed in microsomes isolated from baculovirus infected insect cell assessed as enzyme-mediated compound depletion at 0.02 uM after 30 mins by LC-MS analysis. As to conditions: 0.5 h. The class given is ADME.
Series [11] in a line: Plasma protein binding in human. The format is ADME, cell-free.
In series [12] the test system is Liver microsome. The experiment in a line: Drug metabolism in human liver microsomes assessed as 2-(1-(((1R)-1-(3-(2-(7-chloroquinolin-2-yl)vinyl)phenyl)-3-(2-(1,2-dihydroxypropan-2-yl)phenyl)propylthio)methyl)cyclopropyl)acetic acid formation at 0.4 uM after 15 mins by LC-MS analysis in presence of CYP1A2 inhibitor furafylline, CYP2B6 inhibitor clopidogrel, CYP2D6 inhibitor quinidine and CYP2C9 inhibitor sulfaphenazole. The format is ADME. As to conditions: 0.25 h.

Series [13] addresses T2, Cytochrome P450 2C19. The experiment in a line: Activity of recombinant human CYP2C19 expressed in microsomes isolated from baculovirus infected insect cell assessed as enzyme-mediated (R)-2-(1-((1-(3-(2-(7-chloroquinolin-2-yl)vinyl)phenyl)-3-(4-hydroxy-2-(2-hydroxypropan-2-yl)phenyl)propylthio)methyl)cyclopropyl)acetic acid formation at 1 uM after 60 mins by LC-MS analysis. The class given is ADME. As to conditions: 1 h.

The target of series [14] is T3, Cytochrome P450 2C9. Briefly: Inhibition of recombinant human CYP2C9 expressed in microsomes isolated from baculovirus infected insect cell after 10 mins.
Series [15] concerns the target T5, Cytochrome P450 3A4. The experiment in a line: Activity of recombinant human CYP3A4 expressed in microsomes isolated from baculovirus infected insect cell assessed as enzyme-mediated (R)-2-(1-((1-(3-(2-(7-chloroquinolin-2-yl)vinyl)phenyl)-3-(4-hydroxy-2-(2-hydroxypropan-2-yl)phenyl)propylthio)methyl)cyclopropyl)acetic acid formation at 1 uM after 60 mins by LC-MS analysis. As to conditions: 1 h.

Series [16] has as its target T4, Cytochrome P450 2A6. The experiment in a line: Activity of recombinant human CYP2A6 expressed in microsomes isolated from baculovirus infected insect cell assessed as enzyme-mediated metabolite formation at 10 uM after 60 mins by LC-MS analysis. The class given is ADME. As to conditions: 1 h.

Turning to `CC(O)(CO)c1ccccc1CC[C@@H](SCC1(CC(=O)O)CC1)c1cccc(/C=C/c2ccc3ccc(Cl)cc3n2)c1` (stereo partly specified), the Drug metabolism entry in [1] is “metabolite_detected”; in series [2] it was “metabolite_not_detected”; in [3], “metabolite_not_detected”; in series [4], “metabolite_detected”; in series [5] it was “metabolite_not_detected”.
What is called fraction unbound is free concentration divided by total concentration. High values mean much free substance, low ones little free substance. By Ki is commonly meant the equilibrium dissociation constant of an inhibitor or competing ligand from its target. As to `CC(C)(O)c1ccccc1CC[C@@H](SCC1(CC(=O)[O-])CC1)c1cccc(/C=C/c2ccc3ccc(Cl)cc3n2)c1.[Na+]` [MONTELUKAST SODIUM], the Drug metabolism entry in series [6] is on record as “metabolite_not_detected”; in [7], “metabolite_not_detected”; in [8] it was “metabolite_not_detected”; in [9], “metabolite_detected”; in [10], “metabolite_detected”; in series [12], “metabolite_detected”. For the same compound, the Drug metabolism result in series [13], in [15] and in [16] was “metabolite_detected” in each case. For the same compound, the fraction unbound in [11] was < 0.01. In addition, the Ki in series [14] is 7.4 µM.

(Values after ChEMBL document CHEMBL3525951, “Reevaluation of the microsomal metabolism of montelukast: major contribution by CYP2C8 at clinically relevant concentrations” (Drug Metab Dispos, 2011).)
